Data taken from the kinase profiling compilation of Christmann-Franck et al. (2016).

Experiments:
Assay in all cases: KINOMEscan competition binding
Conditions in all cases: compound 0.1 µM
[1] = test system: ALK (human), Q9UM73 [C1156Y]
BUB1 (human) = BUB1 (human) (UniProt O43683)
CDK18 (human) = CDK18 (human) (UniProt Q07002)
CDK4 CCND1 (human) = CDK4 CCND1 (human) (UniProt P11802+P24385)
CDK7 (human) = CDK7 (human) (UniProt P50613)
CLK3 (human) = CLK3 (human) (UniProt P49761)
CLK4 (human) = CLK4 (human) (UniProt Q9HAZ1)
CPK1 (P.falciparum) = test system: CPK1 (P.falciparum)
CSNK1A1L (human) = CSNK1A1L (human) (UniProt Q8N752)
CSNK1G3 (human) = CSNK1G3 (human) (UniProt Q9Y6M4)
DAPK1 (human) = DAPK1 (human) (UniProt P53355)
DCLK2 (human) = DCLK2 (human) (UniProt Q8N568)
[2] = test system: EGFR (human), P00533 [747-751 del / S ins]
[3] = test system: EGFR (human), P00533 [G719C]
EIF2AK1 (human) = EIF2AK1 (human) (UniProt Q9BQI3)
EIF2AK2 (human) = EIF2AK2 (human) (UniProt P19525)
EPHA4 (human) = EPHA4 (human) (UniProt P54764)
EPHB2 (human) = EPHB2 (human) (UniProt P29323)
ERBB4 (human) = ERBB4 (human) (UniProt Q15303)
FGFR3 (human) = FGFR3 (human) (UniProt P22607)
[4] = test system: FLT3 (human), P36888 [R834Q]
FLT4 (human) = FLT4 (human) (UniProt P35916)
HIPK2 (human) = HIPK2 (human) (UniProt Q9H2X6)
[5] = test system: KIT (human), P10721 [D816H]
LATS1 (human) = LATS1 (human) (UniProt O95835)
MAPK14 (human) = MAPK14 (human) (UniProt Q16539)
MKNK2 (human) = MKNK2 (human) (UniProt Q9HBH9)
MST4 (human) = MST4 (human) (UniProt Q9P289)
MYLK3 (human) = MYLK3 (human) (UniProt Q32MK0)
NEK3 (human) = NEK3 (human) (UniProt P51956)
NEK5 (human) = NEK5 (human) (UniProt Q6P3R8)
NLK (human) = NLK (human) (UniProt Q9UBE8)
PIP5K1A (human) = PIP5K1A (human) (UniProt Q99755)
PTK6 (human) = PTK6 (human) (UniProt Q13882)
SBK1 (human) = SBK1 (human) (UniProt Q52WX2)
STK36 (human) = STK36 (human) (UniProt Q9NRP7)
STK38 (human) = STK38 (human) (UniProt Q15208)
TGFBR2 (human) = TGFBR2 (human) (UniProt P37173)
TLK1 (human) = TLK1 (human) (UniProt Q9UKI8)
ULK3 (human) = ULK3 (human) (UniProt Q6PHR2)

CLK4 (human), sequence (Q9HAZ1 whole entry, looked up): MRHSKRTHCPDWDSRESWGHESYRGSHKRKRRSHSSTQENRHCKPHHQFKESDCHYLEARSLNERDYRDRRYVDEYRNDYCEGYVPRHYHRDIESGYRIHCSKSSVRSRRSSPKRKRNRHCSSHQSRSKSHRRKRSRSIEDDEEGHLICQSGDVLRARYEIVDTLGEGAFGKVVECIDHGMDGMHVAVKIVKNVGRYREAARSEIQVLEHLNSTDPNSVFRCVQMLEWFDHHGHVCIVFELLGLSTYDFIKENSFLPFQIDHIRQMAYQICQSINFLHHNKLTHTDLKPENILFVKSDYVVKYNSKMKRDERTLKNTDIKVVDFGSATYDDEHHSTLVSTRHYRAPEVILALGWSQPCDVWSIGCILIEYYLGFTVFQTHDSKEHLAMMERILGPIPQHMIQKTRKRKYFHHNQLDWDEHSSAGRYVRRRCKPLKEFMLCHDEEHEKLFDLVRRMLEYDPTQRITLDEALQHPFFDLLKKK
ERBB4 (human), sequence (Q15303 whole entry, looked up): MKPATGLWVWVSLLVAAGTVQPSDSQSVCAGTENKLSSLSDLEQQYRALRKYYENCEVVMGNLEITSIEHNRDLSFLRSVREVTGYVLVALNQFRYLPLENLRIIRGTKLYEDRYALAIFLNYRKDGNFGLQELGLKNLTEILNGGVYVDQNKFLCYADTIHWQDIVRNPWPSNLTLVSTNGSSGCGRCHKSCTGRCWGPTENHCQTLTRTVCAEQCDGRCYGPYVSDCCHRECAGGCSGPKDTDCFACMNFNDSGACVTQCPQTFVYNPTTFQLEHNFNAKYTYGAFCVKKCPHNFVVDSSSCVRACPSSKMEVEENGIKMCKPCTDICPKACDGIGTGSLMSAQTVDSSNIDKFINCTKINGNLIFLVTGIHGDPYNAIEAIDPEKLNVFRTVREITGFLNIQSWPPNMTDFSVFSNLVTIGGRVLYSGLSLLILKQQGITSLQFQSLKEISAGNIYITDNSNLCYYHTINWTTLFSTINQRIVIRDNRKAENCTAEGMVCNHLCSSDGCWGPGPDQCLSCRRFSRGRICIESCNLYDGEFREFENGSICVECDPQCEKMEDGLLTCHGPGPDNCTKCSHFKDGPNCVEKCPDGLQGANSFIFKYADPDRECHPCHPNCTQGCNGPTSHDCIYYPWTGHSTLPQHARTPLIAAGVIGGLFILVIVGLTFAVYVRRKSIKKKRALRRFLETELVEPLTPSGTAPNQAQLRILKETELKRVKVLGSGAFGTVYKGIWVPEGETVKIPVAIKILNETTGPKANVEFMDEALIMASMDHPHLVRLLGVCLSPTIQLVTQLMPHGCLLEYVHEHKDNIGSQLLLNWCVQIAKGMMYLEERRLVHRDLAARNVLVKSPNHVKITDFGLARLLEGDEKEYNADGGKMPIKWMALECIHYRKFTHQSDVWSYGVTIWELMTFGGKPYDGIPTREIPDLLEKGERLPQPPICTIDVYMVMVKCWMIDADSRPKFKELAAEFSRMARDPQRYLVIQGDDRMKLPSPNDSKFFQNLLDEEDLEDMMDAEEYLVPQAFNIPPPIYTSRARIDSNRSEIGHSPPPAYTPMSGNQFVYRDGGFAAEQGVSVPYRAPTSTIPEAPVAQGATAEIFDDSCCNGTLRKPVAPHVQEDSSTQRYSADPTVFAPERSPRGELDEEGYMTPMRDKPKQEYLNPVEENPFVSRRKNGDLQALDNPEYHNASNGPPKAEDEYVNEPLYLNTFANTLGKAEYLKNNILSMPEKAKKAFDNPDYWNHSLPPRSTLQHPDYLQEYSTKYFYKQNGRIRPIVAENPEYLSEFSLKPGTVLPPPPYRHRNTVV
PTK6 (human), sequence (Q13882 whole entry, looked up): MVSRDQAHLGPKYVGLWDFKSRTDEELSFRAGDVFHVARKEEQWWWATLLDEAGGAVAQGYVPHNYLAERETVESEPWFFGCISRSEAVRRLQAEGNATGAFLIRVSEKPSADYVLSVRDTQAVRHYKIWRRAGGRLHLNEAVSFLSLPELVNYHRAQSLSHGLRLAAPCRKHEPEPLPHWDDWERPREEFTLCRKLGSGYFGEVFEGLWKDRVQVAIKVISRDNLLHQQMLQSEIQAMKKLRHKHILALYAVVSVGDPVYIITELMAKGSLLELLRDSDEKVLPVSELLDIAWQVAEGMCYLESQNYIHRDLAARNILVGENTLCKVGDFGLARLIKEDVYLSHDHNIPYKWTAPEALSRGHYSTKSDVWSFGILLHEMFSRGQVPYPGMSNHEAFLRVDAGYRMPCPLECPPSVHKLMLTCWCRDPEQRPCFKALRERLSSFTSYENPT
CSNK1G3 (human), sequence (Q9Y6M4 whole entry, looked up): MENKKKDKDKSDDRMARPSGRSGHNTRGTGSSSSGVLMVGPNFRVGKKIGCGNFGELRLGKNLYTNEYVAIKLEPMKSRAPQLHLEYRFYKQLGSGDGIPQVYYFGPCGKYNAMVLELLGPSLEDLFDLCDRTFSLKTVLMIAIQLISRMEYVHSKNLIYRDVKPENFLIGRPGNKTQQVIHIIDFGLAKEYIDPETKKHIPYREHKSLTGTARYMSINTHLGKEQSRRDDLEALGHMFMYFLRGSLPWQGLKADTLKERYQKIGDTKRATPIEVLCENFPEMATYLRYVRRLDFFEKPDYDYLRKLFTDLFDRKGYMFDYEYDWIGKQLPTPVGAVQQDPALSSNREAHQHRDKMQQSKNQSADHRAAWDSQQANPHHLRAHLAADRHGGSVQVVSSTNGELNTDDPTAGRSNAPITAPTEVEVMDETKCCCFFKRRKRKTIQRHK
CDK4 CCND1 (human), sequence (P11802 whole entry, looked up): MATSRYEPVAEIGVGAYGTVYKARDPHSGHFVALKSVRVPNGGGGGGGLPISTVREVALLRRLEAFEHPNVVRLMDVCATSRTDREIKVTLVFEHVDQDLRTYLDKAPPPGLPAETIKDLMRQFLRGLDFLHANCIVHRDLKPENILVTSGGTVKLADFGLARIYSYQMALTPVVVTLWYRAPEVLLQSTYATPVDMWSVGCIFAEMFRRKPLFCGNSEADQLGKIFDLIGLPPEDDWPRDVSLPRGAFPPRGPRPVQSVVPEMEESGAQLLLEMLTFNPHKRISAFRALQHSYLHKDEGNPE
CDK4 CCND1 (human), sequence (P24385 whole entry, looked up): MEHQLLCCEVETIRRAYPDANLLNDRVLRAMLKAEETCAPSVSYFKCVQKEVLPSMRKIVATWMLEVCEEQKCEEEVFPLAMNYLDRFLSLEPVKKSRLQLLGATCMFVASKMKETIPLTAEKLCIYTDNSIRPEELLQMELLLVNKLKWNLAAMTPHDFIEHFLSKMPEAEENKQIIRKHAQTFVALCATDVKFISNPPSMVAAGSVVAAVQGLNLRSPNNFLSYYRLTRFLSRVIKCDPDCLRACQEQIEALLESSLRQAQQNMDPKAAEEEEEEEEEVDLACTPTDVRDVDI
TGFBR2 (human), sequence (P37173 whole entry, looked up): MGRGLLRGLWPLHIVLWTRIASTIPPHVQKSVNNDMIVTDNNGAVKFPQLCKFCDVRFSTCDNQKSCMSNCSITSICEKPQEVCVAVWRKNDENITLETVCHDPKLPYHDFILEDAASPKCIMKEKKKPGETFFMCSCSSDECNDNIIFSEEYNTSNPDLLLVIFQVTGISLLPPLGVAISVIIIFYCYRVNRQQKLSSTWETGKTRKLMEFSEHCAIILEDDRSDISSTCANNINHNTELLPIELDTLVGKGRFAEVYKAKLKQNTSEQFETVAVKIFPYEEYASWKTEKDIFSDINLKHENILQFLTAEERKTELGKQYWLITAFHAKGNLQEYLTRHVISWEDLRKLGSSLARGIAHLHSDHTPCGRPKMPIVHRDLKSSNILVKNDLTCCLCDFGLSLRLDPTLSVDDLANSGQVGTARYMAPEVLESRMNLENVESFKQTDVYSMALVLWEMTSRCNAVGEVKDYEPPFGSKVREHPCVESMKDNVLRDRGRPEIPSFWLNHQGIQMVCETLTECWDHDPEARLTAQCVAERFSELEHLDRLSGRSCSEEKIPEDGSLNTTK
DCLK2 (human), sequence (Q8N568 whole entry, looked up): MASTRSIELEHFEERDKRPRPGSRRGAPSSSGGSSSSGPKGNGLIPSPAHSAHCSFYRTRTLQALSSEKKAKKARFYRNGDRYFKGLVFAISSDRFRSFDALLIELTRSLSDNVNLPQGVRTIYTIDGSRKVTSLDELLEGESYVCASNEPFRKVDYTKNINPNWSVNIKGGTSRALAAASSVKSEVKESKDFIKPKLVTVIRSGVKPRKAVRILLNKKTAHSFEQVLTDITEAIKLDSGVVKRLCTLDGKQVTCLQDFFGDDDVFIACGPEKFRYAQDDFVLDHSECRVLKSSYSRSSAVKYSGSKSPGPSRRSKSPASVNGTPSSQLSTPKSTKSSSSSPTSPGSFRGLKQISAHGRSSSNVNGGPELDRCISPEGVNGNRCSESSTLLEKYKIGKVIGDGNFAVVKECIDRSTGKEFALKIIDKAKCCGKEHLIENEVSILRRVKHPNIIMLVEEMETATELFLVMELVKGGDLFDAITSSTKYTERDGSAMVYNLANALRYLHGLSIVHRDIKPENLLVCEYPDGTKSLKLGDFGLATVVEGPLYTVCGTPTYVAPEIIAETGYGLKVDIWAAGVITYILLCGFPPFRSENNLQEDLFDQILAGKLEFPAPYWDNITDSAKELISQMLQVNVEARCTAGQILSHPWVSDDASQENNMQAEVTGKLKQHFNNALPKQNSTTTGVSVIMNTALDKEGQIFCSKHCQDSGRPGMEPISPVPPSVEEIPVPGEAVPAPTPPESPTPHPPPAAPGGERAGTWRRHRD
CSNK1A1L (human), sequence (Q8N752 whole entry, looked up): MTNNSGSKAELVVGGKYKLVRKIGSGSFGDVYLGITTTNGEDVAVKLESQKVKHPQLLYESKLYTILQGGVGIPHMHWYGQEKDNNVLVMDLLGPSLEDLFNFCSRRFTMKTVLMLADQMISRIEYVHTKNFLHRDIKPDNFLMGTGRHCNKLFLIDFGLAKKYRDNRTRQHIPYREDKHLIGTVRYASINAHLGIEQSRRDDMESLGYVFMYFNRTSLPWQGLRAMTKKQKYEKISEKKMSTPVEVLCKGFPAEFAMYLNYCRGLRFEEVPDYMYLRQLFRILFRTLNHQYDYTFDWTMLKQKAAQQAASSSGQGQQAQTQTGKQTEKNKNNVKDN

Molecule `CCc1ccc(C(=O)Nc2cc(CN3CCN(C)CC3)cc(C(F)(F)F)c2)cc1C#Cc1cnc2ccnn2c1` has a kinase still bound, per cent of control [1] of 97%, a kinase still bound, per cent of control (BUB1 (human)) of 100% and a kinase still bound, per cent of control (CDK18 (human)) of 100%. The kinase still bound, per cent of control (CDK4 CCND1 (human)) was 100%, the kinase still bound, per cent of control (CDK7 (human)) was 100% and the kinase still bound, per cent of control (CLK3 (human)) was 91%. The kinase still bound, per cent of control (CLK4 (human)) was 100%, the kinase still bound, per cent of control (CPK1 (P.falciparum)) was 100% and the kinase still bound, per cent of control (CSNK1A1L (human)) was 83%. The kinase still bound, per cent of control (CSNK1G3 (human)) was 78%, the kinase still bound, per cent of control (DAPK1 (human)) was 100% and the kinase still bound, per cent of control (DCLK2 (human)) was 100%. For the same molecule, the kinase still bound, per cent of control [2] was 100%, the kinase still bound, per cent of control [3] was 100% and the kinase still bound, per cent of control (EIF2AK1 (human)) was 100%. For the same molecule, the kinase still bound, per cent of control (EIF2AK2 (human)) was 83%, the kinase still bound, per cent of control (EPHA4 (human)) was 97% and the kinase still bound, per cent of control (EPHB2 (human)) was 100%. The kinase still bound, per cent of control (ERBB4 (human)) was 100%, the kinase still bound, per cent of control (FGFR3 (human)) was 100% and the kinase still bound, per cent of control [4] was 100%. It also gave a kinase still bound, per cent of control (FLT4 (human)) of 85%, a kinase still bound, per cent of control (HIPK2 (human)) of 100% and a kinase still bound, per cent of control [5] of 81%. For the same molecule, the kinase still bound, per cent of control (LATS1 (human)) was 100%, the kinase still bound, per cent of control (MAPK14 (human)) was 85% and the kinase still bound, per cent of control (MKNK2 (human)) was 100%. For the same molecule, the kinase still bound, per cent of control (MST4 (human)) was 100%, the kinase still bound, per cent of control (MYLK3 (human)) was 100% and the kinase still bound, per cent of control (NEK3 (human)) was 78%. It also gave a kinase still bound, per cent of control (NEK5 (human)) of 100%, a kinase still bound, per cent of control (NLK (human)) of 45% and a kinase still bound, per cent of control (PIP5K1A (human)) of 100%. For the same molecule, the kinase still bound, per cent of control (PTK6 (human)) was 100%, the kinase still bound, per cent of control (SBK1 (human)) was 73% and the kinase still bound, per cent of control (STK36 (human)) was 84%. For the same molecule, the kinase still bound, per cent of control (STK38 (human)) was 93%, the kinase still bound, per cent of control (TGFBR2 (human)) was 100% and the kinase still bound, per cent of control (TLK1 (human)) was 100%. For the same molecule, the kinase still bound, per cent of control (ULK3 (human)) was 100%.
